Data reported in patent US20170224679A1, “Use of CXCR2 Antagonists For The Prevention and/or Treatment of Chemotherapy Induced Peripheral Neuropathy (CIPN)” (GlaxoSmithKline Intellectual Property Development Limited, priority 2014, published 2017).

Legend:
Assay type in all cases: cell-based
CXCR2 receptor [1] = target: T1, CXCR2 receptor (Homo sapiens, UniProt P25025); experiment: CXCR2 Tango assay; set-up: fused on or other part: TEV protease cleavage site and Gal4-VP16 transcription factor fused to the receptor (Invitrogen Tango construct); no part of the key; conditions: Tango reporter gene, 80 nM hCXCL1; read-out: pIC50 against the CXCR2 receptor (converted)
T1 sequence (P25025 1-360): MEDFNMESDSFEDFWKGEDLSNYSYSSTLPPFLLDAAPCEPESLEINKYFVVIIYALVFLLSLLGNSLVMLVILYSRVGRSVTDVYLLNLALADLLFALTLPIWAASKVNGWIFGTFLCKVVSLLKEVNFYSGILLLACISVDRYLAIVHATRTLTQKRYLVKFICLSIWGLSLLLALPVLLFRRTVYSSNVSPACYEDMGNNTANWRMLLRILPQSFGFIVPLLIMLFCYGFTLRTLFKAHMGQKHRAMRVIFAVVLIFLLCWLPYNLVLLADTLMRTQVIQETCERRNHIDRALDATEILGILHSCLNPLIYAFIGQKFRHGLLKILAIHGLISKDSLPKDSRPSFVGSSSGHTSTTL
Excerpt: The assay measures ligand-induced activation of the receptor CXCR2 in a stable cell line containing the recombinant human CXCR2 linked to a TEV protease site and a Gal4-VP16 transcription factor (Invitrogen). Ligand binding to the receptor results in the recruitment of arrestin proteins (tagged with protease) to the receptor and triggers the release of a tethered transcription factor. The transcription factor enters the nucleus and activates the transcription of the reporter gene. The ability of a compound to inhibit CXCR2 activation is indirectly assessed by measuring the reporter gene activity.
A vial of cryopreserved cells was removed from liquid nitrogen and rapidly thawed in a water bath at 37° C. with gentle agitation. The cell contents were collected and resuspended in Assay Medium at a density of ˜200,000 cells/ml. All test compounds were dissolved in DMSO at a concentration of 10 mM and then were serially diluted to generate a 10-point dose response curve into 384-well assay plate (Greiner 781090) using an Echo (Labcyte) concentration-response program (50 nl/well). The cell-free, un-stimulated and positive controls were loaded with 50 nl/well pure DMSO to ensure that the DMSO concentration was constant across the plate for all assays. Using Multi-drop Combi (Thermo) with standard cassette, 50 μl of Assay Medium was added to cell-free control wells in compound-containing assay plate; 50 μl of the cell suspension without hCXCL1 (a CXCR2 ligand) was added to un-stimulated control wells (10,000 cells per well); and 50 μl of the cell suspension with 80 nM hCXCL1 was added to the rest of wells of the assay plate (10,000 cells per well). The cells were incubated overnight at 37° C./5% CO2·10 μl of 6× substrate mixture (LiveBLAzer™-FRET B/G substrate (CCF4-AM) Cat #K1096 from Invitrogen, Inc.) was added to each well using Multi-drop Combi (Thermo) with small-tube cassette and the plate was incubated at room temperature for 2 h in the dark. The plate was then read on EnVision using one excitation channel (409 nm) and two emission channels (460 nm and 530 nm).
The blue/green emission ratio (460 nm/530 nm) was calculated for each well by dividing the background-subtracted Blue emission values by the background-subtracted Green emission values. The dose response curve was based on sigmoidal dose-response model. All ratio data was normalized based upon the maximum emission ratio of positive control (hCXCL1) and minimum emission ratio of negative control (DMSO) on each plate.

CXCR2 receptor [2] = target: T1, CXCR2 receptor; experiment: GPCR Arrestin Assay (DiscoveRX PathHunter), CXCR2; set-up: host or cells: PathHunter CHO cell lines
Description: (§1) Certain compounds of the invention were also tested by DiscoveRX Corporation (42501 Albrae Street, Fremont, Calif. 94538, United States) in their GPCR Arrestin Assay to determine their activity against a panel of receptors including CXCR2 and CXCR1. PathHunter CHO cell lines were expanded from freezer stocks according to standard procedures. Cells were seeded in a total volume of 20 μL into white walled, 384-well microplates and incubated at 37° C. for the appropriate time prior to testing. The cells were pre-incubated with antagonist followed by agonist challenge at the EC80 concentration. Intermediate dilution of sample stocks was performed to generate 5× sample in assay buffer. 5 μL of 5× sample was added to cells and incubated at 37° C. or room temperature for 30 minutes. […] Assay signal was generated through a single addition of 12.5 or 15 μL (50% v/v) of PathHunter Detection reagent cocktail, followed by one hour incubation at room temperature. Microplates were read following signal generation with a PerkinElmer Envision™ instrument for chemiluminescent signal detection. Compound activity was analyzed using CBIS data analysis suite (ChemInnovation, Calif.).

CXCR2 receptor [3] = target: T1, CXCR2 receptor; experiment: Human whole blood assay version ii) (CD11b, GROα stimulated); set-up: Assay d) measures the cellular functional activity to the native expressed human CXCR2 in whole blood; endogenous in cells; host or cells: human whole blood (neutrophils); conditions: 33 nM GROα, neutrophil CD11b, read-out: pIC50 against the CXCR2 receptor (converted)
Description: Blood was withdrawn by venipuncture from consented adults and poured into a Sterilin tube containing an anti-coagulant Heparin (10 μL/mL of blood). All the test compounds were dissolved in DMSO to 4 mM and serial diluted across the plate, 1 in 3 to provide 10 point dose response curves. The compounds were then diluted 100 fold in -PBS [Phosphate buffered saline (without Calcium Chloride and Magnesium Chloride)] after which, 1 μL was dispensed in 96 U bottom Costar plates using an FX. This was done to reduce the final DMSO concentration to 0.25% and for compounds to be screened at 10 uM final assay concentration, after addition of blood.
10 μL of blood was transferred to the compound plate using a multi-channel pipette, gently tapped and incubated for 15 minutes, at 37° C. After 15 minutes, the stimulant GROα was diluted to 100 nM in 0.1% BSA (Albumin Bovine Serum)-PBS and 5 μL is dispensed across the whole plate for a final concentration of 33 nM. The plate was gently tapped and incubated further for 15 minutes at 37° C. […]
Samples were run on a Becton and Dickinson (BD)-Acurri C6 Flow Cytometer using a HyperCyt sampling apparatus (IntelliCyt) with a flow rate 2 μL/sec. CD11 b upregulation is monitored in neutrophils and identified using a combination of both side scatter and CD16 expression.

CXCR1 receptor = target: T2, CXCR1 receptor (Homo sapiens, UniProt P25024); experiment: GPCR Arrestin Assay (DiscoveRX PathHunter), CXCR1; set-up: host or cells: PathHunter CHO cell lines; conditions: PathHunter CHO cells, agonist at EC80; read-out: pIC50 against the CXCR1 receptor (converted)
T2 sequence (P25024 1-350): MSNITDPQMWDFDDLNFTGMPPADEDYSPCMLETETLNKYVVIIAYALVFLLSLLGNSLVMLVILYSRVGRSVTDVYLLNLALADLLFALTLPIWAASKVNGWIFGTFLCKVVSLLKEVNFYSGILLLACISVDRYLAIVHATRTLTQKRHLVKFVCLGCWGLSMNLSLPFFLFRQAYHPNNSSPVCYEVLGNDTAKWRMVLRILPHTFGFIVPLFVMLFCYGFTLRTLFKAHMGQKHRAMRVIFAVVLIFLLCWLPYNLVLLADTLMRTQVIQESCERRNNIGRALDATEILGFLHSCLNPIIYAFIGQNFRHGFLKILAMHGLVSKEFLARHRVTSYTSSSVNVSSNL
Description: as §1

SMILES: CC1=CCC[C@H]1NC(=O)Nc1ccc(Cl)c(S(=O)(=O)[C@@]2(C)CCOC2)c1O [Compound of Formula (J), 1-(4-chloro-2-hydroxy-3-(((S)-3-methyltetrahydrofuran-3-yl)sulfonyl)phenyl)-3-((R)-2-methylcyclopent-2-en-1-yl)urea]
- IC50 (CXCR2 receptor [1]): 1 nM
- selectivity for CXCR2 over CXCR1 (CXCR2 receptor [2]; GPCR Arrestin Assay e)): 730 fold
- IC50 (CXCR2 receptor [2]; PathHunter CHO cells, agonist at EC80, read-out: pIC50 against the CXCR2 receptor (converted)): 5.01 nM
- IC50 (CXCR2 receptor [3]): 39.8 nM
- IC50 (CXCR1 receptor): 3.98 µM
